Data taken from patent US20240025862A1, “SUBSTITUTED N-PHENYLURACILS AND SALTS THEREOF, AND USE THEREOF AS HERBICIDAL ACTIVE SUBSTANCES” (Bayer Aktiengesellschaft, priority 2020, published 2024).

Experiments:
Format in all cases: in vivo
[1] = tested on: Abutilon theophrasti (ABUTH); experiment: Post-emergence herbicidal action, greenhouse pot test; conditions: rated visually after about 3 weeks vs untreated controls, 100% = plants have died
Outline: (§1)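 Greenhouse-grown weeds in sandy loam were sprayed post-emergence at the one-leaf stage, 2–3 weeks after sowing. Compounds were formulated as WP or EC in water with 0.5% additive at 600 l/ha, at rates of 20 g/ha or less. Visual rating after about 3 weeks used a scale from 0% (like untreated control) to 100% (plants dead).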

[2] = tested on: Amaranthus retroflexus (AMARE); experiment: as above; conditions: rated visually after about 3 weeks vs untreated controls, 100% = plants have died
Outline: as §1

[3] = tested on: Pharbitis purpurea (PHBPU); experiment: as above
Outline: as §1

[4] = tested on: Polygonum convolvulus (POLCO); experiment: as above
Outline: as §1

Stellaria media (STEME) = experiment: as above
Outline: as §1

Veronica persica (VERPE) = experiment: as above
Outline: as §1

Viola tricolor (VIOTR) = experiment: as above
Outline: as §1

[5] = tested on: Alopecurus myosuroides (ALOMY); experiment: Post-emergence herbicidal action, greenhouse pot test (also comparative test C); conditions: 20 g/ha, rated visually after about 3 weeks vs untreated controls, 100% = plants have died
Outline: (§2)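 Greenhouse pot plants in sandy loam were sprayed post-emergence at the one-leaf stage (2–3 weeks after sowing) with WP or EC formulations plus 0.5% additive at 600 l/ha water. Activity was rated visually after about 3 weeks versus untreated controls (100% = dead, 0% = like control); rates were 20 g/ha or less, and 5 g/ha or less in the comparative test.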

[6] = tested on: Echinochloa crus-galli (ECHCG); experiment: as above
Outline: as §2

[7] = tested on: Matricaria inodora (MATIN); experiment: as above
Outline: as §2

Setaria viridis (SETVI) = experiment: as above; conditions: for Post-emergence action against SETVI: 20 g/ha
Outline: as §2

Brassica napus (BRSNW) = experiment: Post-emergence crop plant compatibility, greenhouse pot test; conditions: for Post-emergence action against BRSNW (crop plant compatibility): 1.25 g/ha, vs untreated controls
Outline: (§3)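 Percent crop injury was judged by eye roughly three weeks after treatment, relative to untreated plants, where 100% meant death. Application was a post-emergence spray at the one-leaf stage, 600 l/ha water volume with 0.5% additive; letters a, b, c denote differing dose rates.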

Glycine max (GLXMA) = experiment: as above
Outline: as §3

[8] = tested on: Triticum aestivum (TRZAS); experiment: as above; conditions: vs untreated controls
Outline: as §3

Oryza sativa (ORYSA) = experiment: Post-emergence crop plant compatibility, greenhouse pot test (also comparative test C); conditions: vs untreated controls
Outline: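 Rice and other crops sprayed post-emergence at one-leaf stage (2–3 weeks after sowing) with WP or EC formulations plus 0.5% additive at 600 l/ha water. Visual rating about 3 weeks later versus untreated controls (100% = dead, 0% = like control); suffixes a–c denote different doses.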

COCCOCCOC(=O)C(C)Oc1ccccc1Sc1cc(-n2c(=O)cc(C(F)(F)F)n(C)c2=O)c(F)cc1Cl (racemic) [I.2-23]
Post-emergence action at 1.25 g/ha against ABUTH in % ([1]; 1.25 g/ha): 100% | Post-emergence action at 5 g/ha against ABUTH in % [1]: 100% | Post-emergence action at 20 g/ha against ABUTH in % [1]: 100% | Post-emergence action at 1.25 g/ha against AMARE in % [2]: 80% | Post-emergence action at 5 g/ha against AMARE in % [2]: 100% | Post-emergence action at 20 g/ha against AMARE in % [2]: 100% | Post-emergence action against PHBPU in % ([3]; dosage 1.25 g/ha): 100% | Post-emergence action against PHBPU in % ([3]; dosage 5 g/ha): 100% | Post-emergence action against PHBPU in % ([3]; dosage 20 g/ha): 100% | Post-emergence action against POLCO in % ([4]; dosage 5 g/ha): 100% | Post-emergence action against POLCO in % ([4]; dosage 20 g/ha): 100% | Post-emergence action against STEME (Stellaria media (STEME); 5 g/ha): 100% | Post-emergence action against STEME (Stellaria media (STEME); 20 g/ha): 100% | Post-emergence action against VERPE (Veronica persica (VERPE); 1.25 g/ha): 80% | Post-emergence action against VERPE (Veronica persica (VERPE); 5 g/ha): 100% | Post-emergence action against VERPE (Veronica persica (VERPE); 20 g/ha): 100% | Post-emergence action against VIOTR (Viola tricolor (VIOTR); 5 g/ha): 100% | Post-emergence action against VIOTR (Viola tricolor (VIOTR); 20 g/ha): 100% | Post-emergence action at 20 g/ha against ALOMY in % [5]: 80% | Post-emergence action against ECHCG in % ([6]; dosage 5 g/ha): 100% | Post-emergence action against ECHCG in % ([6]; dosage 20 g/ha): 100% | Post-emergence action against MATIN in % ([7]; dosage 5 g/ha): 80% | Post-emergence action against MATIN in % ([7]; dosage 20 g/ha): 100% | Post-emergence action against SETVI (Setaria viridis (SETVI)): 100% | Post-emergence action against SETVI in % (Setaria viridis (SETVI); dosage 5 g/ha): 100% | Post-emergence action against BRSNW (crop plant compatibility) (Brassica napus (BRSNW)): 20% | Post-emergence action at 5 g/ha against BRSNW in % (Brassica napus (BRSNW); 5 g/ha, crop plant compatibility, observed effects on crop plant in comparison to untreated controls): 20% | Post-emergence action against GLXMA in % (Glycine max (GLXMA); 1.25 g/ha): 0% | Post-emergence action against GLXMA in % (Glycine max (GLXMA); 5 g/ha): 10% | Post-emergence action against GLXMA in % (Glycine max (GLXMA); 20 g/ha): 20% | Post-emergence action against TRZAS (crop plant compatibility) ([8]; 1.25 g/ha): 20% | Post-emergence action against ORYSA (crop plant compatibility) (Oryza sativa (ORYSA); 1.25 g/ha): 10% | Post-emergence action against ORYSA (crop plant compatibility) (Oryza sativa (ORYSA); 5 g/ha): 10%

CC(Oc1ccccc1Sc1cc(-n2c(=O)cc(C(F)(F)F)n(C)c2=O)c(F)cc1Cl)C(=O)OCC1CCOC1 (mixture of isomers) [I.2-72]
Post-emergence action at 5 g/ha against ABUTH in % [1]: 100% | Post-emergence action at 20 g/ha against ABUTH in % [1]: 100% | Post-emergence action at 1.25 g/ha against AMARE in % [2]: 90% | Post-emergence action at 5 g/ha against AMARE in % [2]: 100% | Post-emergence action at 20 g/ha against AMARE in % [2]: 100% | Post-emergence action against PHBPU in % ([3]; dosage 1.25 g/ha): 100% | Post-emergence action against PHBPU in % ([3]; dosage 5 g/ha): 100% | Post-emergence action against PHBPU in % ([3]; dosage 20 g/ha): 100% | Post-emergence action against POLCO in % ([4]; dosage 5 g/ha): 80% | Post-emergence action against POLCO in % ([4]; dosage 20 g/ha): 100% | Post-emergence action against STEME (Stellaria media (STEME); 5 g/ha): 100% | Post-emergence action against STEME (Stellaria media (STEME); 20 g/ha): 100% | Post-emergence action against VERPE (Veronica persica (VERPE); 1.25 g/ha): 100% | Post-emergence action against VERPE (Veronica persica (VERPE); 5 g/ha): 100% | Post-emergence action against VERPE (Veronica persica (VERPE); 20 g/ha): 100% | Post-emergence action against VIOTR (Viola tricolor (VIOTR); 1.25 g/ha): 100% | Post-emergence action against VIOTR (Viola tricolor (VIOTR); 5 g/ha): 100% | Post-emergence action against VIOTR (Viola tricolor (VIOTR); 20 g/ha): 100% | Post-emergence action at 20 g/ha against ALOMY in % [5]: 90% | Post-emergence action against ECHCG in % ([6]; dosage 5 g/ha): 80% | Post-emergence action against ECHCG in % ([6]; dosage 20 g/ha): 80% | Post-emergence action against MATIN in % ([7]; dosage 20 g/ha): 100% | Post-emergence action against SETVI (Setaria viridis (SETVI)): 100% | Post-emergence action against SETVI in % (Setaria viridis (SETVI); dosage 1.25 g/ha): 90% | Post-emergence action against SETVI in % (Setaria viridis (SETVI); dosage 5 g/ha): 100% | Post-emergence action against BRSNW (crop plant compatibility) (Brassica napus (BRSNW)): 10% | Post-emergence action against GLXMA in % (Glycine max (GLXMA); 1.25 g/ha): 0% | Post-emergence action against GLXMA in % (Glycine max (GLXMA); 5 g/ha): 10% | Post-emergence action against TRZAS (crop plant compatibility) ([8]; 1.25 g/ha): 20% | Post-emergence action against TRZAS (crop plant compatibility) ([8]; 5 g/ha): 20% | Post-emergence action against ORYSA (crop plant compatibility) (Oryza sativa (ORYSA); 1.25 g/ha): 0% | Post-emergence action against ORYSA (crop plant compatibility) (Oryza sativa (ORYSA); 5 g/ha): 20%

CC(Oc1ccccc1Sc1cc(-n2c(=O)cc(C(F)(F)F)n(C)c2=O)c(F)cc1Cl)C(=O)OCC1CCCO1 (mixture of isomers) [I.2-71]
Post-emergence action at 5 g/ha against ABUTH in % [1]: 100% | Post-emergence action at 20 g/ha against ABUTH in % [1]: 100% | Post-emergence action at 1.25 g/ha against AMARE in % [2]: 100% | Post-emergence action at 5 g/ha against AMARE in % [2]: 100% | Post-emergence action at 20 g/ha against AMARE in % [2]: 100% | Post-emergence action against PHBPU in % ([3]; dosage 1.25 g/ha): 80% | Post-emergence action against PHBPU in % ([3]; dosage 5 g/ha): 100% | Post-emergence action against PHBPU in % ([3]; dosage 20 g/ha): 100% | Post-emergence action against POLCO in % ([4]; dosage 5 g/ha): 100% | Post-emergence action against POLCO in % ([4]; dosage 20 g/ha): 100% | Post-emergence action against STEME (Stellaria media (STEME); 5 g/ha): 100% | Post-emergence action against STEME (Stellaria media (STEME); 20 g/ha): 100% | Post-emergence action against VERPE (Veronica persica (VERPE); 1.25 g/ha): 100% | Post-emergence action against VERPE (Veronica persica (VERPE); 5 g/ha): 100% | Post-emergence action against VERPE (Veronica persica (VERPE); 20 g/ha): 100% | Post-emergence action against VIOTR (Viola tricolor (VIOTR); 1.25 g/ha): 100% | Post-emergence action against VIOTR (Viola tricolor (VIOTR); 5 g/ha): 100% | Post-emergence action against VIOTR (Viola tricolor (VIOTR); 20 g/ha): 100% | Post-emergence action at 20 g/ha against ALOMY in % [5]: 80% | Post-emergence action against ECHCG in % ([6]; dosage 20 g/ha): 80% | Post-emergence action against MATIN in % ([7]; dosage 5 g/ha): 80% | Post-emergence action against MATIN in % ([7]; dosage 20 g/ha): 90% | Post-emergence action against SETVI (Setaria viridis (SETVI)): 100% | Post-emergence action against SETVI in % (Setaria viridis (SETVI); dosage 1.25 g/ha): 90% | Post-emergence action against SETVI in % (Setaria viridis (SETVI); dosage 5 g/ha): 100% | Post-emergence action against BRSNW (crop plant compatibility) (Brassica napus (BRSNW)): 10% | Post-emergence action against GLXMA in % (Glycine max (GLXMA); 1.25 g/ha): 10% | Post-emergence action against TRZAS (crop plant compatibility) ([8]; 1.25 g/ha): 20% | Post-emergence action against TRZAS (crop plant compatibility) ([8]; 5 g/ha): 20% | Post-emergence action against ORYSA (crop plant compatibility) (Oryza sativa (ORYSA); 1.25 g/ha): 20% | Post-emergence action against ORYSA (crop plant compatibility) (Oryza sativa (ORYSA); 5 g/ha): 20%
